The values that follow come from patent US6380218B1, “Nicotinamide derivatives” (Pfizer Inc, priority 1997, dated 2002).

Usually IC50 stands for the concentration that gives 50% inhibition. Usually melting point stands for the temperature of the solid-liquid transition.

Data set [1] addresses human recombinant PDE4B (Homo sapiens, UniProt Q07343). In words: Hydrolysis of 1 uM cAMP by human recombinant PDE4B. The class given is biochemical. The conditions noted are these: for IC50: human recombinant PDE4B, 1 uM cAMP, read-out: Isozyme - IC50, B; for Enantiomer (+) vs. (−), PDE4B: potency of (+) relative to (−) enantiomer. Here is the method: (§1) To assess pharmacologically which PDE4 isozyme(s) is responsible for eosinophil activation, we have prepared enantiomers of PDE4 inhibitors and compare the inhibitory effect of these enantiomers on PDE activity and eosinophil activation. PDE4 activity is assessed by measuring hydrolysis of 1 uM cAMP by individual human recombinant PDE4 isozymes (PDE4A, 4B, 4C or 4D). Eosinophil activation is estimated by measuring Sephadex beads-induced release of eosinophil derived neurotoxin (EDN) and leukotriene E4 in human whole blood. Table 1 illustrates comparison of one example of (−) and (+) enantiomers on the activity of individual PDE4 isozymes and on the release of END and LTE4.

Data set [2] has as its target human recombinant PDE4D (Homo sapiens, UniProt Q08499). In words: Hydrolysis of 1 uM cAMP by human recombinant PDE4D. The class given is biochemical. The conditions noted are these: for IC50: human recombinant PDE4D, 1 uM cAMP, read-out: Isozyme - IC50, 4D; for Enantiomer (+) vs. (−), PDE4D: potency of (+) relative to (−) enantiomer. The method, then: as §1
The target of data set [3] is human recombinant PDE4A (Homo sapiens, UniProt P27815). In words: Hydrolysis of 1 uM cAMP by human recombinant PDE4A. It is filed as biochemical. The conditions noted are these: for IC50: human recombinant PDE4A, 1 uM cAMP, read-out: Isozyme - IC50, A; for Enantiomer (+) vs. (−), PDE4A: potency of (+) relative to (−) enantiomer. Here is the method:
as §1

The test system of data set [4] is eosinophil derived neurotoxin (EDN) release, human whole blood eosinophils. In words: Sephadex beads-induced EDN release in human whole blood (eosinophil degranulation). To be noted: for IC50: Homo sapiens, Eosinophil, read-out: HWB Eosinophil IC30 or IC50, EDN; for Enantiomer (+) vs. (−), EDN: potency of (+) relative to (−) enantiomer, human whole blood. The class given is cell-based. Here is the method:
(§2) Inhibition of Eosinophil Degranulation and Activation in Human Whole Blood
(§3) Human Blood Eosinophil Degranulation and Activation Measurement
(§4) Blood Collection and Compound Incubation
(§5) One hundred ml blood is obtained from normal volunteers in Vacutainer tube #6480 (14.3 USP units sodium heparin/ml blood). Heparinized blood is pooled in 50 ml conical centrifuge tubes at 22° C. On ml blood is placed in a 12×75 mm siliconized glass tube containing 1 ul DMSO or 1 ul test compound in triplicate. After mixing, tubes are placed in a shaking water bath at 37° C. for 15 minutes. One ul PGE1 in DMSO is added to all tubes to give a final concentration of 1 uM. After mixing, 100 ul PBS (negative control) or Sephadex G-15 beads in PBS (8.25-16.5 mg/ml final concentration) is added to tubes. After mixing, all tubes are incubated in a shaking water bath at 37° C. for 1-2 hours.
(§6) Preparation of Plasma Samples
(§7) At the end of incubation, 20 ul of 15% EDTA in PBS is added to each assay tube. After mixing, the samples are centrifuged at 2,000 rpm (Sorvall 6000B centrifuge) at 22° C. for 5 minutes.
(§8) EDN (or EPX) and LTE4 Measurements and the Effect of Compounds
(§9) All plasma samples are tested for EDN (eosinophil derived neurotoxin) and LTE4 (leukotriene E4) levels. […] The levels of EDN and LTE4 are determined by a RIA (Kabi Pharmacia Diagnostics) and EIA (Cayman Chemical), respectively. EDN and LTE4 levels are calculated by comparison to a standard curve using Microsoft Excel or other appropriate software. Percent of control EDN or LTE4 release is calculated by:
% Control EDN=[EDN(compound)−EDN(blank)]/[EDN(total)−EDN(blank)]
(§10) where the blank is the level of EDN or LTE4 in the absence of Sephadex beads and the total is the level of EDN or LTE4 in the presence of Sephadex beads. An IC30 or IC50 value is defined as the concentration of a compound that inhibits specific EDN or LTE 4 release by 30 or 50%, respectively.
as §1

Data set [5] relates to leukotriene E4 (LTE4) release, human whole blood eosinophils. In words: Sephadex beads-induced LTE4 release in human whole blood (eosinophil activation). The class given is cell-based. The conditions noted are these: for IC50: Eosinophil, Sephadex beads, head does not say whether IC30 or IC50, read-out: HWB Eosinophil IC30 or IC50, LTE4; for Enantiomer (+) vs. (−), LTE4: potency of (+) relative to (−) enantiomer. Here is the method: as §2, §3, §4, §5, §6, §7, §8, §9
% Control LTE4=[LTE4(compound)−LTE4(blank)]/[LTE4(total)−LTE4(blank)]
as §10, §1

In data set [6] the target is human recombinant PDE4C (Homo sapiens, UniProt Q08493). In words: Hydrolysis of 1 uM cAMP by human recombinant PDE4C. It is filed as biochemical. The conditions noted are these: for IC50: human recombinant PDE4C, 1 uM cAMP, read-out: Isozyme - IC50, C; for Enantiomer (+) vs. (−), PDE4C: potency of (+) relative to (−) enantiomer. The method, then:
as §1

Sequence of human recombinant PDE4B (Q07343 whole entry): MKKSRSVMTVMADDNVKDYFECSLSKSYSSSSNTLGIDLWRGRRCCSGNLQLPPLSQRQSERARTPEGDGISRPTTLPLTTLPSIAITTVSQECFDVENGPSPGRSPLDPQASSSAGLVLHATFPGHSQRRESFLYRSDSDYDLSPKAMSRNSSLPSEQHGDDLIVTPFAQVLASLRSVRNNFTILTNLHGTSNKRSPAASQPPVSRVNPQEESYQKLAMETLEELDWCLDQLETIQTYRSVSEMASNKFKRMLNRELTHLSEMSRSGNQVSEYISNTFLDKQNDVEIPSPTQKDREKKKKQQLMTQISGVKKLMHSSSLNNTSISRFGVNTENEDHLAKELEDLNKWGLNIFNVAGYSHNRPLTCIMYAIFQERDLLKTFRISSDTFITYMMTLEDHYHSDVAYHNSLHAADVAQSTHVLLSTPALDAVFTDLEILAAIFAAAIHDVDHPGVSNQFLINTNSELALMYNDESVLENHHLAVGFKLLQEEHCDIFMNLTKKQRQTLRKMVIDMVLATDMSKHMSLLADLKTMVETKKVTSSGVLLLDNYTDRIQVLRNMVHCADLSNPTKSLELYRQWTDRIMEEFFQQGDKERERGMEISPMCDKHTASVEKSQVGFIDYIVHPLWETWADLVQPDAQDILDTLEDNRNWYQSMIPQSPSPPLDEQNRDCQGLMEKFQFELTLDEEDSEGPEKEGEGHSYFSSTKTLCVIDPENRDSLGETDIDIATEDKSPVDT
Sequence of human recombinant PDE4A (P27815 whole entry): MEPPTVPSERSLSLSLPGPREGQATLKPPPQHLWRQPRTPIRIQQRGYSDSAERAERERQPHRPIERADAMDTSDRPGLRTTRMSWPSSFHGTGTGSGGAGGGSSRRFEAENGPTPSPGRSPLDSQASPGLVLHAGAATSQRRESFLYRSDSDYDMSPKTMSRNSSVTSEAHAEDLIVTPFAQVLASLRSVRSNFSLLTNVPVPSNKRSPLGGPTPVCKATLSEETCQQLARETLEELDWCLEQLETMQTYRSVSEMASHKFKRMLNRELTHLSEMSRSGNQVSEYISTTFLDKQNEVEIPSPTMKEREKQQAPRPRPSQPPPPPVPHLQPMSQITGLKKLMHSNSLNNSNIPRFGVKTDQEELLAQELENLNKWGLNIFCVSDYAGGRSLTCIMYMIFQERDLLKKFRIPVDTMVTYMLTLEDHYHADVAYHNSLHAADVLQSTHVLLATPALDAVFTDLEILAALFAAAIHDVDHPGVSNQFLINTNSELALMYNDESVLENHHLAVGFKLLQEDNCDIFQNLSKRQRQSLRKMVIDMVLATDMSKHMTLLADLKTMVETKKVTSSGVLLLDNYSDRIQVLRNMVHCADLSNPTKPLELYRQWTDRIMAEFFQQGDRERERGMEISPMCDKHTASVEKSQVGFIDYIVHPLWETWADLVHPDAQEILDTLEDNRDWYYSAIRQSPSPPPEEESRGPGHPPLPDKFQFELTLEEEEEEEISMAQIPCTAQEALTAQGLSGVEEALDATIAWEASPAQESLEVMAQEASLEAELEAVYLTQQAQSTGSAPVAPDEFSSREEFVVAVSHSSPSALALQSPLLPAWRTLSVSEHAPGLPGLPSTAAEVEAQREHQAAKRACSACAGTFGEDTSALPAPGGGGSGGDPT
Sequence of human recombinant PDE4D (Q08499 whole entry): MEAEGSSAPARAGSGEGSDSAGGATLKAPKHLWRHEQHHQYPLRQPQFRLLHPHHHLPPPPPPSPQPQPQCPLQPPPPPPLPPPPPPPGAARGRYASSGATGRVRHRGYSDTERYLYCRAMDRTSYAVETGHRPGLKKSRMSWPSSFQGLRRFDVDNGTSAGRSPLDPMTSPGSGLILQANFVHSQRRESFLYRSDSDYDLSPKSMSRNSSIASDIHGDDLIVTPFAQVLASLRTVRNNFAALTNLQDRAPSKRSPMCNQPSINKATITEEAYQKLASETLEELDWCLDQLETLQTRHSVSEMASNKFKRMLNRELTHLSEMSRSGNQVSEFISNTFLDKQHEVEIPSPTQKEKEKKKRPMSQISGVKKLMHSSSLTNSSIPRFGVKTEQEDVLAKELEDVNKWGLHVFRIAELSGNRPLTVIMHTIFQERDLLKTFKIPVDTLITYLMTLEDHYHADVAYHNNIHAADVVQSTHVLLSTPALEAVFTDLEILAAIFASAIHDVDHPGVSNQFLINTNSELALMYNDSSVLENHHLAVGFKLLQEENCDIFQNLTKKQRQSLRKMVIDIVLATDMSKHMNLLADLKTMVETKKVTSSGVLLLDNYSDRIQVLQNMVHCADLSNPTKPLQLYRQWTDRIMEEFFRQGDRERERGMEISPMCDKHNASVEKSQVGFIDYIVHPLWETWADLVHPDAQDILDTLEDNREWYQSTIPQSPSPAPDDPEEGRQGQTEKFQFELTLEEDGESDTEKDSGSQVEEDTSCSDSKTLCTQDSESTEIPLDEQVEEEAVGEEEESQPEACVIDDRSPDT
Sequence of human recombinant PDE4C (Q08493 whole entry): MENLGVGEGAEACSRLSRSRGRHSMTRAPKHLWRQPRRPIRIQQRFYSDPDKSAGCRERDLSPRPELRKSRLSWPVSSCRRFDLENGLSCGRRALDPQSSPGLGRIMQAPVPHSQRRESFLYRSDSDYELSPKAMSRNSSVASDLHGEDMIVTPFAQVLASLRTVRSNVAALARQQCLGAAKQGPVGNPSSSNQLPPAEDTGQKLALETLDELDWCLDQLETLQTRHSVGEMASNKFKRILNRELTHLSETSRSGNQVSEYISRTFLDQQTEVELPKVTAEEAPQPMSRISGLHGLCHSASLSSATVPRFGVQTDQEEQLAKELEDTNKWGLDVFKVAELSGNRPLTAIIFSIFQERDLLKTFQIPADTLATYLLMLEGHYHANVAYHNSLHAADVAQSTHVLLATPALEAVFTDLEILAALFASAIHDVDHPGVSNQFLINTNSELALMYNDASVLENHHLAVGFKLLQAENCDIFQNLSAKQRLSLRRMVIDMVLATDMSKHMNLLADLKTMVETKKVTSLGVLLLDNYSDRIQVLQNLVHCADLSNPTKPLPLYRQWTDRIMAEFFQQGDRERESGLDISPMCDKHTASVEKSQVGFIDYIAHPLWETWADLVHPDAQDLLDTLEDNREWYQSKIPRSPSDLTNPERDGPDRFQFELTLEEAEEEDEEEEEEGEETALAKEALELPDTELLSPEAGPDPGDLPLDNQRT

As to `COc1ccc([C@H](C)NC(=O)c2cccnc2Oc2ccc(F)cc2)cc1` [(+) Enantiomer, (S)-(+) 2-(4-Fluoro-phenoxy)-N-[1-(4-methoxy-phenyl)-ethyl]-nicotinamide], in data set [1], the IC50 was found to be 600 nM and the “Enantiomer (+) vs. (−), PDE4B” value is “approximately equipotent”. Besides, in data set [2], the 50% inhibitory concentration (IC50) is 9 nM and the “Enantiomer (+) vs. (−), PDE4D” value was 22 X. In data set [3], the IC50 turned out to be 600 nM and the “Enantiomer (+) vs. (−), PDE4A” value was “approximately equipotent”. In addition, in data set [4], the IC50 is 50 nM and the “Enantiomer (+) vs. (−), EDN” value is given as 20-37 X. Further, in data set [5], the IC50 was 8 nM and the “Enantiomer (+) vs. (−), LTE4” value is listed as 20-37 X. In data set [6], the 50% inhibitory concentration (IC50) was 800 nM and the “Enantiomer (+) vs. (−), PDE4C” value was “approximately equipotent”.

Take `COc1ccc([C@@H](C)NC(=O)c2cccnc2Oc2ccc(F)cc2)cc1` [(−) Enantiomer, (R)(−)2-(4-Fluoro-phenoxy)-N-[1-(4-methoxy-phenyl)-ethyl]-nicotinamide]: the IC50 in data set [1] is 300 nM; in data set [2], 200 nM; in data set [3] it was 600 nM; in data set [4] it was 1000 nM; in data set [5] it was 300 nM; in data set [6], 400 nM.

Take `Cc1noc2ccc(Oc3ncccc3C(=O)NCC3CCC(C(C)(C)O)CC3)cc12` (stereo not drawn) [Example 315, N-(4-(1-Hydroxy-1-methyl-ethyl)-cyclohexylmethyl)-2-(3-methyl-benzo(d)-isoxazol-5-yloxy)-nicotinamide]: the melting point was in the range of 135 to 137 °C.

Turning to `Cc1noc2ccc(Oc3ncccc3C(=O)NCc3ccc(C(C)(C)O)cc3)cc12` [Example 316, N-(4-(1-Hydroxy-1-methyl-ethyl)-benzyl)-2-(3-methyl-benzo(d)-isoxazol-5-yloxy)-nicotinamide], the melting point was in the range of 128 to 130 °C.

Compound `Cc1noc2c(Oc3ncccc3C(=O)NCC3CCC(C(C)(C)O)CC3)cccc12` (stereo not drawn) [Example 317, N-(4-(1-Hydroxy-1-methyl-ethyl)-cyclohexylmethyl)-2-(3-methyl-benzo(d)-isoxazol-7-yloxy)-nicotinamide] showed a melting point of 170 to 172 °C.

`CC(C)(O)C1CCC(CNC(=O)c2cccnc2Oc2ccc(F)c(C#N)c2)CC1` (stereo not drawn) [Example 322, 2-(3-Cyano-4-fluoro-phenoxy)-N-[4-(1-hydroxy-1-methyl-ethyl)-cyclohexylmethyl]-nicotinamide] showed a melting point of 85 to 88 °C.

In turn, `CC(C)(O)c1ccc(CNC(=O)c2cccnc2Oc2ccc3c(c2)OCO3)c(F)c1` [Example 327, 2-(Benzo[1,3]dioxol-5-yloxy)-N-[2-fluoro-4-(1-hydroxy-1-methyl-ethyl)-benzyl]-nicotinamide] showed a melting point of 94 to 95 °C.

For `CC(C)(O)c1ccc(CNC(=O)c2cccnc2Oc2ccc(F)cc2)c(F)c1` [Example 328, N-[2-Fluoro-4-(1-hydroxy-1-methyl-ethyl)-benzyl]-2-(4-fluoro-phenoxy)-nicotinamide], the melting point lay in the range of 93 to 94 °C.

Take “(S)-(+) 2-(4-Fluoro-phenoxy)-N-[1-(4-methoxy-phenyl)-ethyl]-nicotinamide [(+) Enantiomer]”: in data set [1], the “Enantiomer (+) vs. (−), PDE4B” value was “.5X”. Also, the “Enantiomer (+) vs. (−), PDE4D” value in data set [2] was found to be 22X. Further, in data set [3], the “Enantiomer (+) vs. (−), PDE4A” value is on record as “.s”. The “Enantiomer (+) vs. (−), EDN” value in data set [4] is recorded as 20X. Further, the “Enantiomer (+) vs. (−), LTE4” value in data set [5] was 37X. The “Enantiomer (+) vs. (−), PDE4C” value in data set [6] is recorded as 0.5X.
